Data published in US6355799B1, “Substituted benzene compounds, process for their preparation, and herbicidal and defoliant compositions containing them” (ISK Americas Incorporated, priority 1997, dated 2002).

Legend:
Assay type in all cases: in vivo
[1] = test system: upland rice (Oryza sp., var. Tebonnet, RICE); assay: Post-emerge test, crop safety; settings: phytotoxicity rating 0-100 (0 no damage, 100 complete death), 14 days after application
Method in brief: (§1)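 Plants grown in 10 cm pots of sandy loam mix received acetone-dissolved compounds through a moving flat-fan nozzle. Doses ranged from 15 to 1000 g ai/ha. Pre-emerge pots were seeded one day earlier, post-emerge pots 8–21 days earlier. Fourteen days on, each pot was graded 0–100 for damage.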

[2] = test system: field corn (Zea mays L., var. Dekalb 535, CORN); assay: Post-emerge test, crop safety; settings: phytotoxicity rating 0-100 (0 no damage, 100 complete death), 14 days after application
Method in brief: as §1

[3] = test system: upland rice (Oryza sp., var. Tebonnet, RICE); assay: Pre-emerge test, crop safety; settings: pre-emerge, rated 14 days after application, 0 = no damage, 100 = complete death
Method in brief: (§2)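 Visual ratings on a 0-100 scale (0 no damage, 100 all plants dead) were taken at 14 days after treatment. Rates of 15-1000 g ai/ha in acetone, 187 l/ha, were sprayed onto soil one day after planting (pre-emerge) or onto 2-3 leaf plants with 0.25% v/v surfactant (post-emerge).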

[4] = test system: field corn (Zea mays L., var. Dekalb 535, CORN); assay: Pre-emerge test, crop safety; settings: pre-emerge, rated 14 days after application, 0 = no damage, 100 = complete death
Method in brief: as §2

[5] = test system: redroot pigweed (Amaranthus retroflexus, AMARE); assay: Pre-emerge test, greenhouse herbicide activity screening; settings: pre-emerge, rated 14 days after application, 0 = no damage, 100 = complete death
Method in brief: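 Herbicidal damage is scored 0 (none) to 100 (complete plant death) two weeks after a simulated field spray. Rates span 15–1000 g ai/ha, delivered in acetone at 187 l/ha. For post-emergence treatments, plants have 2–3 leaves and the spray carries 0.25% v/v non-ionic surfactant.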

[6] = test system: green foxtail (Setaria viridis, SETVI); assay: as above; settings: pre-emerge, rated 14 days after application, 0 = no damage, 100 = complete death
Method in brief: (§3)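 Rating: 0–100 visual injury, 14 DAA. Application: acetone, 187 l/ha, 15–1000 g ai/ha, flat-fan track sprayer with nozzle 40–45 cm above soil or canopy. Post-emerge runs used 0.25% v/v surfactant on 2–3 leaf plants.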

[7] = test system: lambsquarters (Chenopodium album, CHEAL); assay: as above; settings: pre-emerge, rated 14 days after application, 0 = no damage, 100 = complete death
Method in brief: as §3

[8] = test system: sicklepod (Cassia obtusifolia, CASOB); assay: as above; settings: pre-emerge, rated 14 days after application, 0 = no damage, 100 = complete death
Method in brief: as §3

[9] = test system: velvetleaf (Abutilon theophrasti, ABUTH); assay: as above; settings: pre-emerge, rated 14 days after application, 0 = no damage, 100 = complete death
Method in brief: as §3

[10] = test system: large crabgrass (Digitaria sanguinalis, DIGSA); assay: as above; settings: pre-emerge, rated 14 days after application, 0 = no damage, 100 = complete death
Method in brief: as §3

[11] = test system: barnyardgrass (Echinochloa crus-galli, ECHCG); assay: as above; settings: pre-emerge, rated 14 days after application, 0 = no damage, 100 = complete death
Method in brief: as §3

[12] = test system: ivyleaf morningglory (Ipomoea hederacea, IPOHE); assay: as above; settings: pre-emerge, rated 14 days after application, 0 = no damage, 100 = complete death
Method in brief: as §3

[13] = test system: johnsongrass (Sorghum halepense, SORHA); assay: as above; settings: pre-emerge, rated 14 days after application, 0 = no damage, 100 = complete death
Method in brief: as §3

[14] = test system: common ragweed (Ambrosia artemisizfolia L., AMBEL); assay: Post-emerge test, greenhouse herbicide activity screening; settings: 250 g ai/ha; phytotoxicity rating 0-100 (0 no damage, 100 complete death), 14 days after application
Method in brief: (§4)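 Each test used a mechanized track sprayer delivering 187 l/ha of acetone solution at 15–1000 g ai/ha. Post-emerge foliage at 2–3 leaves was treated with added 0.25% v/v non-ionic surfactant and bottom-watered only. Injury was assessed on day 14, where 100 means total kill.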

[15] = test system: green foxtail (Setaria viridis, SETVI); assay: as above; settings: phytotoxicity rating 0-100 (0 no damage, 100 complete death), 14 days after application
Method in brief: as §4

[16] = test system: lambsquarters (Chenopodium album, CHEAL); assay: as above; settings: phytotoxicity rating 0-100 (0 no damage, 100 complete death), 14 days after application
Method in brief: as §4

[17] = test system: sicklepod (Cassia obtusifolia, CASOB); assay: as above; settings: phytotoxicity rating 0-100 (0 no damage, 100 complete death), 14 days after application
Method in brief: as §4

[18] = test system: velvetleaf (Abutilon theophrasti, ABUTH); assay: as above; settings: phytotoxicity rating 0-100 (0 no damage, 100 complete death), 14 days after application
Method in brief: as §4

[19] = test system: large crabgrass (Digitaria sanguinalis, DIGSA); assay: as above; settings: phytotoxicity rating 0-100 (0 no damage, 100 complete death), 14 days after application
Method in brief: as §4

[20] = test system: barnyardgrass (Echinochloa crus-galli, ECHCG); assay: as above; settings: phytotoxicity rating 0-100 (0 no damage, 100 complete death), 14 days after application
Method in brief: as §4

[21] = test system: ivyleaf morningglory (Ipomoea hederacea, IPOHE); assay: as above; settings: phytotoxicity rating 0-100 (0 no damage, 100 complete death), 14 days after application
Method in brief: as §4

[22] = test system: johnsongrass (Sorghum halepense, SORHA); assay: as above; settings: phytotoxicity rating 0-100 (0 no damage, 100 complete death), 14 days after application
Method in brief: as §4

[23] = test system: redroot pigweed (Amaranthus retroflexus, AMARE); assay: as above; settings: phytotoxicity rating 0-100 (0 no damage, 100 complete death), 14 days after application
Method in brief: as §4

## CCOC(=O)CC(=O)Nc1c(OC(=O)CC(=O)OCC)c(Cl)cc(F)c1-n1c(=O)cc(C(F)(F)F)n(C)c1=O [2-16]
[1]; 63 g ai/ha
  Post-emerge Herbicidal Activity RICE (crop damage): 40
[1]; 250 g ai/ha
  Post-emerge Herbicidal Activity RICE (crop damage): 45
[2]; 63 g ai/ha
  Post-emerge Herbicidal Activity CORN (crop damage): 70
[2]; 250 g ai/ha
  Post-emerge Herbicidal Activity CORN (crop damage): 90
[3]; 63 g ai/ha
  Pre-emerge crop damage RICE (phytotoxicity rating, scale 0-100): 0
[3]; 250 g ai/ha
  Pre-emerge crop damage RICE (phytotoxicity rating, scale 0-100): 15
[4]; 63 g ai/ha
  Pre-emerge crop damage CORN (phytotoxicity rating, scale 0-100): 0
[4]; 250 g ai/ha
  Pre-emerge crop damage CORN (phytotoxicity rating, scale 0-100): 20
[5]; 63 g ai/ha
  Pre-emerge Herbicidal Activity AMARE (phytotoxicity rating, scale 0-100): 50
[5]; 250 g ai/ha
  Pre-emerge Herbicidal Activity AMARE (phytotoxicity rating, scale 0-100): 100
[6]; 63 g ai/ha
  Pre-emerge Herbicidal Activity SETVI (phytotoxicity rating, scale 0-100): 0
[6]; 250 g ai/ha
  Pre-emerge Herbicidal Activity SETVI (phytotoxicity rating, scale 0-100): 100
[7]; 63 g ai/ha
  Pre-emerge Herbicidal Activity CHEAL (phytotoxicity rating, scale 0-100): 95
[7]; 250 g ai/ha
  Pre-emerge Herbicidal Activity CHEAL (phytotoxicity rating, scale 0-100): 100
[8]; 63 g ai/ha
  Pre-emerge Herbicidal Activity CASOB (phytotoxicity rating, scale 0-100): 0
[8]; 250 g ai/ha
  Pre-emerge Herbicidal Activity CASOB (phytotoxicity rating, scale 0-100): 100
[9]; 63 g ai/ha
  Pre-emerge Herbicidal Activity ABUTH (phytotoxicity rating, scale 0-100): 80
[9]; 250 g ai/ha
  Pre-emerge Herbicidal Activity ABUTH (phytotoxicity rating, scale 0-100): 100
[10]; 63 g ai/ha
  Pre-emerge Herbicidal Activity DIGSA (phytotoxicity rating, scale 0-100): 0
[10]; 250 g ai/ha
  Pre-emerge Herbicidal Activity DIGSA (phytotoxicity rating, scale 0-100): 100
[11]; 63 g ai/ha
  Pre-emerge Herbicidal Activity ECHCG (phytotoxicity rating, scale 0-100): 0
[11]; 250 g ai/ha
  Pre-emerge Herbicidal Activity ECHCG (phytotoxicity rating, scale 0-100): 40
[12]; 63 g ai/ha
  Pre-emerge Herbicidal Activity IPOHE (phytotoxicity rating, scale 0-100): 0
[12]; 250 g ai/ha
  Pre-emerge Herbicidal Activity IPOHE (phytotoxicity rating, scale 0-100): 90
[13]; 63 g ai/ha
  Pre-emerge Herbicidal Activity SORHA (phytotoxicity rating, scale 0-100): 0
[13]; 250 g ai/ha
  Pre-emerge Herbicidal Activity SORHA (phytotoxicity rating, scale 0-100): 80
[14]
  Post-emerge Herbicidal Activity AMBEL: 100
[15]; 63 g ai/ha
  Post-emerge Herbicidal Activity SETVI: 50
[15]; 250 g ai/ha
  Post-emerge Herbicidal Activity SETVI: 100
[16]; 63 g ai/ha
  Post-emerge Herbicidal Activity CHEAL: 80
[16]; 250 g ai/ha
  Post-emerge Herbicidal Activity CHEAL: 100
[17]; 63 g ai/ha
  Post-emerge Herbicidal Activity CASOB: 10
[17]; 250 g ai/ha
  Post-emerge Herbicidal Activity CASOB: 80
[18]; 63 g ai/ha
  Post-emerge Herbicidal Activity ABUTH: 100
[18]; 250 g ai/ha
  Post-emerge Herbicidal Activity ABUTH: 100
[19]; 63 g ai/ha
  Post-emerge Herbicidal Activity DIGSA: 20
[19]; 250 g ai/ha
  Post-emerge Herbicidal Activity DIGSA: 60
[20]; 63 g ai/ha
  Post-emerge Herbicidal Activity ECHCG: 90
[20]; 250 g ai/ha
  Post-emerge Herbicidal Activity ECHCG: 100
[21]; 63 g ai/ha
  Post-emerge Herbicidal Activity IPOHE: 99
[21]; 250 g ai/ha
  Post-emerge Herbicidal Activity IPOHE: 100
[22]; 63 g ai/ha
  Post-emerge Herbicidal Activity SORHA: 40
[22]; 250 g ai/ha
  Post-emerge Herbicidal Activity SORHA: 95
[23]; 63 g ai/ha
  Post-emerge Herbicidal Activity AMARE: 50
[23]; 250 g ai/ha
  Post-emerge Herbicidal Activity AMARE: 100
